Marks after values point to notes of the source that are not given here.
How the values were obtained:
[1] = biological target: CK1d (casein kinase 1 delta) (Homo sapiens, UniProt P48730); test: Kinase selectivity, % remaining activity and IC50; format: biochemical; settings: 10 μM ATP; for % of remaining activity (relative to DMSO) / remaining activity at 10 µM: CK1d, 10 μM compound, duplicate; for remaining activity at 10 µM: read-out: % of remaining activity (relative to DMSO); for IC50: casein kinase 1 delta, 10-dose, 3 fold serial dilution
Method: (§1) A two-tier strategy to determine the selectivity of compound A was applied: first, the compound was tested at a single concentration (in duplicate) to determine the %-remaining activity of the target kinase. Subsequently, the IC50 of compound A and comparative compounds for casein kinase 1 delta were determined.
(§2) Compounds were tested in single dose duplicate mode at a concentration of 10 μM (in DMSO) and reactions were carried out at 10 μM ATP, Table 3 reports the % of remaining activity (relative to DMSO).
Control compound GW5074 (Tocris®) was tested starting at 20 μM. Reactions were carried out at 10 μM ATP.

PKA = PKA (Homo sapiens, UniProt P17612); test: Kinase selectivity, % remaining activity; format: biochemical; settings: 10 μM compound, 10 μM ATP, duplicate; for remaining activity at 10 µM: read-out: % of remaining activity (relative to DMSO)
Method: as §1, §2

RIPK2 = RIPK2 (Homo sapiens, UniProt O43353); test: Kinase selectivity, % remaining activity; format: biochemical; settings: 10 μM compound, 10 μM ATP, duplicate; for remaining activity at 10 µM: read-out: % of remaining activity (relative to DMSO)
Sequence of RIPK2 (O43353 whole entry): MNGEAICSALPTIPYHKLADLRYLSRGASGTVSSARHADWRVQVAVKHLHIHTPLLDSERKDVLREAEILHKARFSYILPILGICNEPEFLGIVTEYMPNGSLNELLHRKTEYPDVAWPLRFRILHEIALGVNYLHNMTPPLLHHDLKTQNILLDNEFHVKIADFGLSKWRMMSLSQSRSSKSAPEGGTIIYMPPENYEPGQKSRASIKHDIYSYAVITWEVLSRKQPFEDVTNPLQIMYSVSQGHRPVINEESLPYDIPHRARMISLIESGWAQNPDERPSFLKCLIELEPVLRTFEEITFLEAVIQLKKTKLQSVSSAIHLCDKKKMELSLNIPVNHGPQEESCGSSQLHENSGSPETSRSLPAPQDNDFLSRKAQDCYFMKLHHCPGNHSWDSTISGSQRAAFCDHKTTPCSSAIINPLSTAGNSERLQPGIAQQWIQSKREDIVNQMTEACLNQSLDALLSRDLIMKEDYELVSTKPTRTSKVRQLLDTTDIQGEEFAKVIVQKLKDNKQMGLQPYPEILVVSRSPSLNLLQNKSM
Method: as §1, §2

PKCb2 = PKCb2 (Homo sapiens, UniProt P05771); test: Kinase selectivity, % remaining activity; format: biochemical; settings: 10 μM compound, 10 μM ATP, duplicate; for remaining activity at 10 µM: read-out: % of remaining activity (relative to DMSO)
Method: as §1, §2

P38a/MAPK14 = P38a/MAPK14 (Homo sapiens, UniProt Q16539); test: Kinase selectivity, % remaining activity; format: biochemical; settings: 10 μM compound, 10 μM ATP, duplicate; for remaining activity at 10 µM: read-out: % of remaining activity (relative to DMSO)
Method: as §1, §2

CK1g1 = CK1g1 (Homo sapiens, UniProt Q9HCP0); test: Kinase selectivity, % remaining activity; format: biochemical; settings: 10 μM compound, 10 μM ATP, duplicate; for remaining activity at 10 µM: read-out: % of remaining activity (relative to DMSO)
Method: as §1, §2

CK1e = CK1e (Homo sapiens, UniProt P49674); test: Kinase selectivity, % remaining activity; format: biochemical; settings: 10 μM compound, 10 μM ATP, duplicate; for remaining activity at 10 µM: read-out: % of remaining activity (relative to DMSO)
Sequence of CK1e (P49674 whole entry): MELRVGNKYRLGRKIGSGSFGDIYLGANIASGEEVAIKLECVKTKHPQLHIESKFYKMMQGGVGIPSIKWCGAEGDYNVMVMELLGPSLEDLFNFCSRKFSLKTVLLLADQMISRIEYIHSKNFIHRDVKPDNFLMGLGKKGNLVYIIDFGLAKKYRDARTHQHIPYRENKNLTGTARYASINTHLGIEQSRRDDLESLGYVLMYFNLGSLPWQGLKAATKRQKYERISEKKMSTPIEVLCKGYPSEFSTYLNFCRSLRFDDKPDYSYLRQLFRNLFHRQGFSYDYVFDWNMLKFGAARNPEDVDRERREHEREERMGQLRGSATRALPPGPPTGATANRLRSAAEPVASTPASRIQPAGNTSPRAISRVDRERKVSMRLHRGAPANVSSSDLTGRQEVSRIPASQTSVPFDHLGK
Method: as §1, §2

KDR/VEGFR2 = KDR/VEGFR2 (Homo sapiens, UniProt P35968); test: Kinase selectivity, % remaining activity; format: biochemical; settings: 10 μM compound, 10 μM ATP, duplicate; for remaining activity at 10 µM: read-out: % of remaining activity (relative to DMSO)
Method: as §1, §2

CDK5/p25 = CDK5/p25 (Homo sapiens, UniProt Q00535); test: Kinase selectivity, % remaining activity; format: biochemical; settings: 10 μM compound, 10 μM ATP, duplicate; for remaining activity at 10 µM: read-out: % of remaining activity (relative to DMSO)
Sequence of CDK5/p25 (Q00535 whole entry, species assumed): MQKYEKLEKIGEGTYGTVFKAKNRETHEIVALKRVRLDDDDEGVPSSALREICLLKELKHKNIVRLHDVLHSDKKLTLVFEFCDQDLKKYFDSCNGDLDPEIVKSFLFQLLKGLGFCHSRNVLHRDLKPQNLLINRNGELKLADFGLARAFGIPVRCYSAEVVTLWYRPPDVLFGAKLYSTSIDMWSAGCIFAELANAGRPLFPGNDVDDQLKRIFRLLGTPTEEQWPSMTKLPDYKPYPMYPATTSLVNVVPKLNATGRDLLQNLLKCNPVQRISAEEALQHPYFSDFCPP
Method: as §1, §2

FGFR1 = FGFR1 (Homo sapiens, UniProt P11362); test: Kinase selectivity, % remaining activity; format: biochemical; settings: 10 μM compound, 10 μM ATP, duplicate; for remaining activity at 10 µM: read-out: % of remaining activity (relative to DMSO)
Sequence of FGFR1 (P11362 22-822): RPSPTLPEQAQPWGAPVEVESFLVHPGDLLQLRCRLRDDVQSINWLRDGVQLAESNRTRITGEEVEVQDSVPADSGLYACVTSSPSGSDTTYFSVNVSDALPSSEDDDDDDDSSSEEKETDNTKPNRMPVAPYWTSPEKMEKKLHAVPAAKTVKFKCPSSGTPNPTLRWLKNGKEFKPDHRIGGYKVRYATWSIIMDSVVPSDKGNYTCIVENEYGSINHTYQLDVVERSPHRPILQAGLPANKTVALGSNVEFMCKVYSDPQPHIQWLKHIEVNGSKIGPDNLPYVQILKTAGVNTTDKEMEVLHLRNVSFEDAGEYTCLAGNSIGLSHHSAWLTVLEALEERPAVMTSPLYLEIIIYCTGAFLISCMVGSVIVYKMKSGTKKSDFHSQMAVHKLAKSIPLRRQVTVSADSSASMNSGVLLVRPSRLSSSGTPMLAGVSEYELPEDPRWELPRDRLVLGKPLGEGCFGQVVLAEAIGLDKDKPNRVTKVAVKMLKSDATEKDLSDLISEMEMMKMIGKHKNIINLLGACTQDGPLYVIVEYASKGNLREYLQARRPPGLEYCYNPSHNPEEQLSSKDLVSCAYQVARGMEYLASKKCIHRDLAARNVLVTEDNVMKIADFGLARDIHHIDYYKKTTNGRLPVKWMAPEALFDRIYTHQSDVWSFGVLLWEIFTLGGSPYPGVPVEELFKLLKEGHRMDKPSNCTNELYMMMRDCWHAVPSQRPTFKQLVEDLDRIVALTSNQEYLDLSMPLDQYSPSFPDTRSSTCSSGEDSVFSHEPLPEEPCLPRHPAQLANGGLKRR
Method: as §1, §2

CK1g3 = CK1g3 (Homo sapiens, UniProt Q9Y6M4); test: Kinase selectivity, % remaining activity; format: biochemical; settings: 10 μM compound, 10 μM ATP, duplicate; for remaining activity at 10 µM: read-out: % of remaining activity (relative to DMSO)
Method: as §1, §2

ABL2/ARG = ABL2/ARG (Homo sapiens, UniProt P42684); test: Kinase selectivity, % remaining activity; format: biochemical; settings: 10 μM compound, 10 μM ATP, duplicate; for remaining activity at 10 µM: read-out: % of remaining activity (relative to DMSO)
Method: as §1, §2

TNIK = TNIK (Homo sapiens, UniProt Q9UKE5); test: Kinase selectivity, % remaining activity; format: biochemical; settings: 10 μM compound, 10 μM ATP, duplicate; for remaining activity at 10 µM: read-out: % of remaining activity (relative to DMSO)
Sequence of TNIK (Q9UKE5 whole entry): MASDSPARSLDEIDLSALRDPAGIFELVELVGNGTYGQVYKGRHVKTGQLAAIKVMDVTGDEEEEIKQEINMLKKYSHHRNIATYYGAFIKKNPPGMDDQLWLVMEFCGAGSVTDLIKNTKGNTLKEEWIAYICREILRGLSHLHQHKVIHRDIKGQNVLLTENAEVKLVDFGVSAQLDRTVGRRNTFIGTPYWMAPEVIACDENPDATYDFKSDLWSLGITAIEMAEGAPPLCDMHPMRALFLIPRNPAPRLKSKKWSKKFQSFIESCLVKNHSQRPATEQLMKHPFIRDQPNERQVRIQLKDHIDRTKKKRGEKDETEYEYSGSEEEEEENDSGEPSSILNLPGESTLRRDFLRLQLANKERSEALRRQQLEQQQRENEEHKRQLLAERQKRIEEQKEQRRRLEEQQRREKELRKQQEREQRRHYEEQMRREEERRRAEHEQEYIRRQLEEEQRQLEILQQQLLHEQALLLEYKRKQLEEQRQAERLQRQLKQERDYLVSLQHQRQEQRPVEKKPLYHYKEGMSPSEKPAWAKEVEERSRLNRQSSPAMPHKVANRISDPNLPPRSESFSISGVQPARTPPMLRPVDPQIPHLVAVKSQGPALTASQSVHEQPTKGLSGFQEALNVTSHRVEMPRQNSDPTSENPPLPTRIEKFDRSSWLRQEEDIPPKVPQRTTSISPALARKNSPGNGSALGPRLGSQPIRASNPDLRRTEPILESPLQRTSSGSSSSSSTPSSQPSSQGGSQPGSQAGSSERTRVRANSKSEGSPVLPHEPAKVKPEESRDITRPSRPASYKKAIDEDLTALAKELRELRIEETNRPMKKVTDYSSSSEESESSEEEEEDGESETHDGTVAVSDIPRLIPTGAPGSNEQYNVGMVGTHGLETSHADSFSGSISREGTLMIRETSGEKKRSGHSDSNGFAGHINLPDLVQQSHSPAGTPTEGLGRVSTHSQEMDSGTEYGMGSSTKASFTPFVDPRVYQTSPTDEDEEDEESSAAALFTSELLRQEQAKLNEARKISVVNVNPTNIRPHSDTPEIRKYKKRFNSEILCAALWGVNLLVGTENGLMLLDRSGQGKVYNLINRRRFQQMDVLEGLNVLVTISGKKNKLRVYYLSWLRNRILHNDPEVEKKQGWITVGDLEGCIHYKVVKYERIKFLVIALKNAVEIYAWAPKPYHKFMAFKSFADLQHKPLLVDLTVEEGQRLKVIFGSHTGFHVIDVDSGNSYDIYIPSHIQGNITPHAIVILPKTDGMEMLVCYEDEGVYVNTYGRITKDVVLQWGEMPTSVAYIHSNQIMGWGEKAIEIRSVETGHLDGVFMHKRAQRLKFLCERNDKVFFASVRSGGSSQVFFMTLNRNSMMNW
Method: as §1, §2

JNK2 = JNK2 (Homo sapiens, UniProt P45984); test: Kinase selectivity, % remaining activity; format: biochemical; settings: 10 μM compound, 10 μM ATP, duplicate; for remaining activity at 10 µM: read-out: % of remaining activity (relative to DMSO)
Method: as §1, §2

DAPK1 = DAPK1 (Homo sapiens, UniProt P53355); test: Kinase selectivity, % remaining activity; format: biochemical; settings: 10 μM compound, 10 μM ATP, duplicate; for remaining activity at 10 µM: read-out: % of remaining activity (relative to DMSO)
Sequence of DAPK1 (P53355 whole entry): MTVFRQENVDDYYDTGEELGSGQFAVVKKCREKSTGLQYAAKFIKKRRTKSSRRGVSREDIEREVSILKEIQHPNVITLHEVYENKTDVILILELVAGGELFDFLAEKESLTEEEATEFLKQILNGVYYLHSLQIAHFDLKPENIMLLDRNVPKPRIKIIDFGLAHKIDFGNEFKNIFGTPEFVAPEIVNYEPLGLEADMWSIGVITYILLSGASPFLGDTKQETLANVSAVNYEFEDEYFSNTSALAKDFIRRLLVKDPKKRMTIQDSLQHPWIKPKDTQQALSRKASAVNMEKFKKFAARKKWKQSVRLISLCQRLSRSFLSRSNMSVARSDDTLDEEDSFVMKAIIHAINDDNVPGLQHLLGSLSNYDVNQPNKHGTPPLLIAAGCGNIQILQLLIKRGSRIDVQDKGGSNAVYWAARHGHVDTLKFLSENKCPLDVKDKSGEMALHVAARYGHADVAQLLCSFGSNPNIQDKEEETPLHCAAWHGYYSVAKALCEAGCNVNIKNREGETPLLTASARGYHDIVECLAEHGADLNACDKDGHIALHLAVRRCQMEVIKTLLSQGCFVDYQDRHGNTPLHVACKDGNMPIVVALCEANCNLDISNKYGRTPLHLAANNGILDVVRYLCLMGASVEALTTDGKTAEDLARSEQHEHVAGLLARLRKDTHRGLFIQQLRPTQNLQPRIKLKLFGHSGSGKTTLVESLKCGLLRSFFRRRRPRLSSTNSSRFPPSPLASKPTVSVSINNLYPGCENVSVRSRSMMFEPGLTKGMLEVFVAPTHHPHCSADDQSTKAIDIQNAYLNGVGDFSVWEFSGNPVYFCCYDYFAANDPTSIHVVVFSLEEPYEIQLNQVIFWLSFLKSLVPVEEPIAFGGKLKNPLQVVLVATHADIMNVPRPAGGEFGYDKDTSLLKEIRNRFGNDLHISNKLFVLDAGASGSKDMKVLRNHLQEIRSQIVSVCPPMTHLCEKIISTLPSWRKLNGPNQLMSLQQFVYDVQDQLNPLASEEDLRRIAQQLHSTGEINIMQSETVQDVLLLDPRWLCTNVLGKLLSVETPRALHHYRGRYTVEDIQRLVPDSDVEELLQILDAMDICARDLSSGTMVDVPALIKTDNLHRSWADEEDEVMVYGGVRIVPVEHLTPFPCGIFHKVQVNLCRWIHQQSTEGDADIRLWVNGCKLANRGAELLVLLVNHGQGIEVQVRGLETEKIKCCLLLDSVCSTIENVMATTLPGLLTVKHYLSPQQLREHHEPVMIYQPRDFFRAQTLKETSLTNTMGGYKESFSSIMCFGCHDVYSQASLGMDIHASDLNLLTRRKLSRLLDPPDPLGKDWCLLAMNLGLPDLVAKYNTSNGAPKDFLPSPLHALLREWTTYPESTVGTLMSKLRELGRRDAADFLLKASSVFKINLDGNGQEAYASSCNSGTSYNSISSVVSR
Method: as §1, §2

LCK = LCK (Homo sapiens, UniProt P06239); test: Kinase selectivity, % remaining activity; format: biochemical; settings: 10 μM compound, 10 μM ATP, duplicate; for remaining activity at 10 µM: read-out: % of remaining activity (relative to DMSO)
Method: as §1, §2

EGFR = EGFR (Homo sapiens, UniProt P00533); test: Kinase selectivity, % remaining activity; format: biochemical; settings: 10 μM compound, 10 μM ATP, duplicate; for remaining activity at 10 µM: read-out: % of remaining activity (relative to DMSO)
Method: as §1, §2

CK1a1 = CK1a1 (Homo sapiens, UniProt P48729); test: Kinase selectivity, % remaining activity; format: biochemical; settings: CK1a1, 10 μM compound, 10 μM ATP, duplicate; for remaining activity at 10 µM: read-out: % of remaining activity (relative to DMSO)
Method: as §2

[2] = tested on: TMHT (Thy-1 Mutated Human Tau) mouse; test: In-vivo efficacy, Morris Water Maze in tau transgenic mice; settings: 30 mg/kg orally for 8 weeks
Description: Various compounds of different classes (among them also antibody treatments) were positively tested for their efficacy in the TMHT model. Published examples are the γ-secretase modulator CHF5074 (Lanzilotta A, et al. The γ-secretase modulator CHF5074 reduces the accumulation of native hyperphosphoxylated tau in a transgenic mouse model of Alzheimer's disease. J Mol Neurosci. 45(1):22--33 (2010)), sodium selenate (Corcoran N M et al. Sodium selenate specifically activates PP2A phosphatase, dephosphorylates tau and reverses memory deficits in an Alzheimer's disease model. J Clin Neurosci. 17(8):1025-33 (2010)) and grape-seed polyphenol extract (Wang J et al. Grape derived polyphenols attenuate tau neuropathology in a mouse model of Alzheimer's disease. […] The effects of the compounds on learning in the Morris Mater Maze (MWM) were evaluated. Blood (plasma) and brain samples were collected after sacrification. Samples collected at sacrifice were plasma, left cortex, left hippocampus, right cortex, right hippocampus, remainder of left brain hemisphere, remainder of right brain hemisphere. In total 48 animals were used and allocated to 4 treatment groups. The start position of the mouse and the position of the platform (FIG. 1) in the different trials of the MWM were as indicated in Table 9: […] A descriptive statistical analysis was performed on all evaluated parameters. All data were represented as mean ±standard error of mean (SEM). MWM learning curve data of three trials per day were averaged. Over a period of 4 days, the ability to find a hidden platform using visual cues was measured performing 3 trials a day. By comparison of the learning curves, the cognitive abilities of the different treatment groups and possible drug effects were evaluated.

COc1ccc(C=C2N=C(c3cccs3)OC2=O)cc1 [Comparative Compound 315, 4-((4-methoxyphenyl)methylene)-2-(2-thienyl)-5(4H)-oxalone]
% of remaining activity (relative to DMSO) ([1]; listed as Cmp 315): 1.38%
remaining activity at 10 µM [1]: 2.23%
IC50 [1]: 435 nM
% of remaining activity (relative to DMSO) (PKA; listed as Cmp 315): 112.40%
remaining activity at 10 µM (PKA): 116%
% of remaining activity (relative to DMSO) (RIPK2; listed as Cmp 315): 90.19%
remaining activity at 10 µM (RIPK2): 93.4%
% of remaining activity (relative to DMSO) (PKCb2; listed as Cmp 315): 110.56%
remaining activity at 10 µM (PKCb2): 112%
% of remaining activity (relative to DMSO) (P38a/MAPK14; listed as Cmp 315): 107.03%
remaining activity at 10 µM (P38a/MAPK14): 105%
% of remaining activity (relative to DMSO) (CK1g1; listed as Cmp 315): 73.02%
remaining activity at 10 µM (CK1g1): 71.9%
% of remaining activity (relative to DMSO) (CK1e; listed as Cmp 315): 6.51%
remaining activity at 10 µM (CK1e): 5.45%
% of remaining activity (relative to DMSO) (KDR/VEGFR2; listed as Cmp 315): 107.86%
remaining activity at 10 µM (KDR/VEGFR2): 104%
% of remaining activity (relative to DMSO) (CDK5/p25; listed as Cmp 315): 94.86%
remaining activity at 10 µM (CDK5/p25): 96.1%
% of remaining activity (relative to DMSO) (FGFR1; listed as Cmp 315): 101.65%
remaining activity at 10 µM (FGFR1): 102%
% of remaining activity (relative to DMSO) (CK1g3; listed as Cmp 315): 2.99%
remaining activity at 10 µM (CK1g3): 2.9%
% of remaining activity (relative to DMSO) (ABL2/ARG; listed as Cmp 315): 89.19%
remaining activity at 10 µM (ABL2/ARG): 83.4%
% of remaining activity (relative to DMSO) (TNIK; listed as Cmp 315): 101.11%
remaining activity at 10 µM (TNIK): 101%
% of remaining activity (relative to DMSO) (JNK2; listed as Cmp 315): 98.70%
remaining activity at 10 µM (JNK2): 99.4%
% of remaining activity (relative to DMSO) (DAPK1; listed as Cmp 315): 90.84%
remaining activity at 10 µM (DAPK1): 96%
% of remaining activity (relative to DMSO) (LCK; listed as Cmp 315): 97.71%
remaining activity at 10 µM (LCK): 94.9%
% of remaining activity (relative to DMSO) (EGFR; listed as Cmp 315): 117.99%
remaining activity at 10 µM (EGFR): 111%
% of remaining activity (relative to DMSO) (CK1a1; listed as Cmp 315): 44.41%
remaining activity at 10 µM (CK1a1): 33.6%

CNc1c(C(N)=O)c2ccccn2c1C(=O)c1ccc(F)cc1 [Compound A, 2-methyl-amino-3-[(4-fluorophenyl)carbonyl]indolizine-1-carboxamide]
% of remaining activity (relative to DMSO) ([1]; listed as Cmp A): 0.98%
remaining activity at 10 µM [1]: 1.15%
IC50 [1]: 17.4 nM
% of remaining activity (relative to DMSO) (PKA; listed as Cmp A): 82.86%
remaining activity at 10 µM (PKA): 84.3%
% of remaining activity (relative to DMSO) (RIPK2; listed as Cmp A): 91.39%
remaining activity at 10 µM (RIPK2): 93.5%
% of remaining activity (relative to DMSO) (PKCb2; listed as Cmp A): 111.60%
remaining activity at 10 µM (PKCb2): 113%
% of remaining activity (relative to DMSO) (P38a/MAPK14; listed as Cmp A): 34.47* %
remaining activity at 10 µM (P38a/MAPK14): 35.3%
% of remaining activity (relative to DMSO) (CK1g1; listed as Cmp A): 119.87%
remaining activity at 10 µM (CK1g1): 107%
% of remaining activity (relative to DMSO) (CK1e; listed as Cmp A): 3.67%
remaining activity at 10 µM (CK1e): 2.81%
% of remaining activity (relative to DMSO) (KDR/VEGFR2; listed as Cmp A): 109.28%
remaining activity at 10 µM (KDR/VEGFR2): 111%
% of remaining activity (relative to DMSO) (CDK5/p25; listed as Cmp A): 88.62%
remaining activity at 10 µM (CDK5/p25): 90.2%
% of remaining activity (relative to DMSO) (FGFR1; listed as Cmp A): 95.15%
remaining activity at 10 µM (FGFR1): 95.7%
% of remaining activity (relative to DMSO) (CK1g3; listed as Cmp A): 97.24%
remaining activity at 10 µM (CK1g3): 98.5%
% of remaining activity (relative to DMSO) (ABL2/ARG; listed as Cmp A): 70.98%
remaining activity at 10 µM (ABL2/ARG): 71.3%
% of remaining activity (relative to DMSO) (TNIK; listed as Cmp A): 94.12%
remaining activity at 10 µM (TNIK): 94.4%
% of remaining activity (relative to DMSO) (JNK2; listed as Cmp A): 97.26%
remaining activity at 10 µM (JNK2): 99.9%
% of remaining activity (relative to DMSO) (DAPK1; listed as Cmp A): 124.50%
remaining activity at 10 µM (DAPK1): 134%
% of remaining activity (relative to DMSO) (LCK; listed as Cmp A): 39.87%
remaining activity at 10 µM (LCK): 39.4%
% of remaining activity (relative to DMSO) (EGFR; listed as Cmp A): 52.51%
remaining activity at 10 µM (EGFR): 55.8%
Escape latency (time to reach the target), Mean ± SEM, Day 1 ([2]; Day 1): 58.1 ± 1.44 s
Path length to reach the target, Mean ± SEM, Day 1 ([2]; Day 1): 9.20 ± 0.46 meter
Escape latency (time to reach the target), Mean ± SEM, Day 2 ([2]; Day 2): 53.7 ± 2.41 s
Path length to reach the target, Mean ± SEM, Day 2 ([2]; Day 2): 8.60 ± 0.52 meter
Escape latency (time to reach the target), Mean ± SEM, Day 3 ([2]; Day 3): 49.4 ± 3.23 s
Path length to reach the target, Mean ± SEM, Day 3 ([2]; Day 3): 7.05 ± 0.62 meter
Escape latency (time to reach the target), Mean ± SEM, Day 4 ([2]; Day 4): 45.4 ± 3.22 s
Path length to reach the target, Mean ± SEM, Day 4 ([2]; Day 4): 6.94 ± 0.62 meter
% of remaining activity (relative to DMSO) (CK1a1; listed as Cmp A): 5.37%
remaining activity at 10 µM (CK1a1): 5.17%

From US10815230B2, “Casein kinase 1 delta inhibitor” (ELECTROPHORETICS LIMITED, priority 2015, dated 2020)
